Assay: Release test for budesonide, USP XXIII <711> Dissolution, apparatus 2 (paddle), 100 revolutions/min
Format: physicochemical
Procedure: The release test for budesonide is carried out in accordance with USP XXIII monograph <711> “Dissolution” with apparatus 2 (paddle) with 100 revolutions/min in phosphate buffer of pH 7.5 according to the monograph “Intestinal Fluid, Simulated, TS” without addition of pepsin or in purified water with the paddle at 100 revolutions/min with 500 ml of dissolving medium. 400 mg of sample were weighed for each determination. Detection took place by means of HPLC with a PP 18 column, 10 cm (Phenomenex) and UV detection at 246 nm. Equipment: pump L 7000 100 (from Merck-Hitachi, Darmstadt, Germany), autosampler L 7000 200 (from Merck-Hitachi, Darmstadt, Germany) UV/VIS detector L 4250 (from Merck-Hitachi, Darmstadt, Germany). The volume injected was 100 μl, and the flow rate was 1 ml/min. The retention times averaged 2.5 min. At the end of the test, the pellets were homogenized with an Ultra Turrax for 10 min. The content was used as 100% value in the calculation. 3 to 6 tests were carried out for each medium.
The pellets release the active ingredient under the indicated conditions in vitro as described below. At the end of the test, the pellets were homogenized using an Ultra Turrax for 10 min, and the budesonide concentration in the solution was again determined. The latter measurement was used as 100% value (theoretically possible budesonide content in the solution) in the calculation.

CCCC1O[C@@H]2C[C@H]3[C@@H]4CCC5=CC(=O)C=C[C@]5(C)[C@H]4[C@@H](O)C[C@]3(C)[C@]2(C(=O)CO)O1 (stereo partly shown) [Example 1, budesonide]
Release in purified water and phosphate buffer of pH 7.5, Mean (time 0 min): 0.0 % of theory | Release in purified water and phosphate buffer of pH 7.5, Mean (time 60 min): ca. 3.7 % of theory | Release in purified water and phosphate buffer of pH 7.5, Mean (time 120 min): ca. 5.4 % of theory | Release in purified water and phosphate buffer of pH 7.5, Mean (time 180 min): ca. 7.1 % of theory

From patent US20050089571A1, “Pharmaceutical formulation for the active ingredient budesonide” (ROEHM GMBH & CO.KG, priority 2002, published 2005)
